Results taken from ChEMBL document CHEMBL4321793, “Can Cysteine Protease Cross-Class Inhibitors Achieve Selectivity?” (J Med Chem, 2019).

Tests used:
[1] = target: Cruzipain (Trypanosoma cruzi, UniProt P25779); experiment: Reversible inhibition of Trypanosoma cruzi cruzipain
[2] = target: T1, Procathepsin L (Homo sapiens, UniProt P07711); experiment: Reversible inhibition of human cathepsin L
[3] = target: Cathepsin B (Homo sapiens, UniProt P07858); experiment: Reversible inhibition of human cathepsin B
[4] = system: human cathepsin L versus Trypanosoma cruzi cruzipain; experiment: Selectivity ratio of IC50 for reversible inhibition of human cathepsin L to IC50 for reversible inhibition of Trypanosoma cruzi cruzipain; assay type: toxicity; conditions: read-out: Ratio IC50
[5] = system: human cathepsin B versus Trypanosoma cruzi cruzipain; experiment: Selectivity ratio of IC50 for reversible inhibition of human cathepsin B to IC50 for reversible inhibition of Trypanosoma cruzi cruzipain; assay type: toxicity; conditions: read-out: Ratio IC50
[6] = target: T1, Procathepsin L; experiment: Inhibition of human cathepsin L
[7] = target: Rhodesain (Trypanosoma brucei rhodesiense, UniProt Q95PM0); experiment: Inhibition of Trypanosoma brucei rhodesiense rhodesain
Rhodesain, sequence (Q95PM0 whole entry): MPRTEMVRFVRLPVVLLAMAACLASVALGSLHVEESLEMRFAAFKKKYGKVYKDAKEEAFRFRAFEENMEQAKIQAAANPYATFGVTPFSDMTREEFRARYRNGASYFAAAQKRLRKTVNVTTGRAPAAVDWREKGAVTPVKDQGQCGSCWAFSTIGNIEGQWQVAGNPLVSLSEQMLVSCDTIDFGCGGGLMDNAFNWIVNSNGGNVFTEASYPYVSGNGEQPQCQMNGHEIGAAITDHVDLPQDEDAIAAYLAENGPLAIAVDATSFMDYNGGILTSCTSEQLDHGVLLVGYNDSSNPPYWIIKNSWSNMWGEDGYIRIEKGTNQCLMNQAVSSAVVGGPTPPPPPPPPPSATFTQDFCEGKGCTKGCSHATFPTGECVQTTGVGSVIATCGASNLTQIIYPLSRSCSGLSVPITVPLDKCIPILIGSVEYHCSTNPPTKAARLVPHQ

T1 sequence (P07711 whole entry): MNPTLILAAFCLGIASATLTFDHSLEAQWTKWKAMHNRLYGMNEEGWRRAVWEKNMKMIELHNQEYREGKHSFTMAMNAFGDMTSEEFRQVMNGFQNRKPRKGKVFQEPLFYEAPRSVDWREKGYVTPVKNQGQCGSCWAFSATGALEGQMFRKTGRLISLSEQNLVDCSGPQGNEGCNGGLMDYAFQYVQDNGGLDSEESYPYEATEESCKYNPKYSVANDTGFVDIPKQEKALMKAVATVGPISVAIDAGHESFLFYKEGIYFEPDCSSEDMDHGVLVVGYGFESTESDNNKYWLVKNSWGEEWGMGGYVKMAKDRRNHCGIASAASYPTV
Cruzipain, sequence (P25779 whole entry): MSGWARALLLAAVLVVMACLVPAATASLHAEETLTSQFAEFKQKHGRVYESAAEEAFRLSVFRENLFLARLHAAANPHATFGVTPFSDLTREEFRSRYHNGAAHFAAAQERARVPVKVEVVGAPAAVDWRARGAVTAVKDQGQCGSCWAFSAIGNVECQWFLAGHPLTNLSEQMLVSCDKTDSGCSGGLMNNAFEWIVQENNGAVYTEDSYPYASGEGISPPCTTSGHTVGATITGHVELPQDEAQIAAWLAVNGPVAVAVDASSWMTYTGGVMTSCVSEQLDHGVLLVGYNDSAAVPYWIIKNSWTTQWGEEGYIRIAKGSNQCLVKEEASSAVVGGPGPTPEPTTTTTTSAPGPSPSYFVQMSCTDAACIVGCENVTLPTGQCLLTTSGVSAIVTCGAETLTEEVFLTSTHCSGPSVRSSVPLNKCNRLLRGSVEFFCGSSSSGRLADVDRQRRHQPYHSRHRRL

SMILES | IC50 [1] | IC50 [2] | IC50 [3] | selectivity ratio [4] | selectivity ratio [5] | Ki [6] | Ki [7]
CC(C)(F)C[C@H](N[C@@H](c1ccc(-c2ccc(N3CCNCC3)cc2)cc1)C(F)(F)F)C(=O)NCC#N | 0.8 nM | 47 nM | 1110 nM | 58 | 1390 |  | 
N#Cc1nc(N2CCOCC2)nc(N(Cc2ccc3c(c2)OCO3)C2CCCCC2)n1 |  |  |  |  |  | 33 nM | 
CCC[C@H]1CC[C@H](N(Cc2ccc3c(c2)OCO3)c2nc(C#N)nc(N3CCOCC3)n2)CC1 |  |  |  |  |  | 690 nM | 2 nM
